# Data as given in ChEMBL document CHEMBL4808170, “Structure-Based Design of Potent and Orally Active Isoindolinone Inhibitors of MDM2-p53 Protein-Protein Interaction” (J Med Chem, 2021).
# Columns and labels:
# [1] = Metabolic stability in CD1 mouse liver microsomes assessed as half life at 1 uM; type: ADME, Microsome
# [2] = Lipophilicity, logD of compound at pH 7.4 by Chromatography; type: physicochemical; settings: buffer
# CYP3A4 [3] = target: T1, CYP3A4 (Homo sapiens, UniProt P08684); assay: Inhibition of CYP3A4 (unknown origin) using midazolam as substrate in presence of NADPH at 8 uM; type: ADME; settings: probe midazolam
# CYP3A4 [4] = target: T1, CYP3A4; assay: Inhibition of human CYP3A4 expressed in human supersomes assessed as half life in presence of NADPH at 1 uM using midazolam as substrate measured after 40 mins; type: ADME; settings: supersomes expressing human CYP3A4, probe midazolam
# [5] = Metabolic stability in human liver microsomes assessed as half life at 1 uM; type: ADME, Microsome
# [6] = Inhibition of MDM2/IP3 (unknown origin) protein-protein interaction expressed using TNT T7 coupled reticulocyte lysate system incubated for 90 mins by ELISA
# SJSA-1 [7] = assay: Antitumor activity in human SJSA-1 cells […] CD-1 mouse xenograft model assessed as inhibition of tumor growth at 50 mg/kg, po single dose for 7 days relative to control; type: functional; settings: time 7 day
# SJSA-1 [8] = assay: Antitumor activity in human SJSA-1 cells […] CD-1 mouse xenograft model assessed as increase in p53 expression in tumor at 50 mg/kg, po single dose measured after 3 hrs by MSD analysis relative to control; type: functional
# SJSA-1 [9] = assay: Antiproliferative activity against human SJSA-1 cells expressing wild type TP53 incubated for 72 hrs by Sulforhodamine B assay; type: functional
# [10] = Antiproliferative activity against human SN40R2 cells derivative of SJSA-1 cells expressing mutant TP53 at 30 uM incubated for 72 hrs by Sulforhodamine B assay; type: functional
# [11] = Plasma protein binding in human incubated for 48 hrs; type: ADME, cell-free; settings: read-out: PPB (converted)
# [12] = In vivo clearance in nonhuman primate at 0.2 mg/kg, iv by HPLC analysis; type: ADME, organism-based; settings: primates
# [13] = Plasma clearance in BALB/c mouse at 5 mg/kg, po by HPLC analysis; type: ADME, organism-based
# [14] = Plasma protein binding in BALB/c mouse incubated for 48 hrs; type: ADME, cell-free; settings: read-out: PPB (converted)
# SJSA-1 [15] = assay: Antitumor activity in human SJSA-1 cells […] CD-1 mouse xenograft model assessed as increase in p53 expression in tumor at 50 mg/kg, po single dose measured after 6 hrs by MSD analysis relative to control; type: functional
# [16] = Oral bioavailability in BALB/c mouse at 5 mg/kg by HPLC analysis; type: ADME, organism-based; settings: in vivo
# [17] = Toxicity in CD-1 mouse xenografted human SJSA-1 cells assessed as change in body weight at 50 mg/kg, po single dose for 7 days relative to control; type: organism-based; settings: in vivo, 168 h, time 7 day
# [18] = Toxicity in CD-1 mouse xenografted human SJSA-1 cells assessed as adverse effect at 50 mg/kg, po single dose for 7 days relative to control; type: organism-based; settings: in vivo, 168 h, time 7 day
# [19] = Oral bioavailability in nonhuman primate at 5 mg/kg by HPLC analysis; type: ADME, organism-based; settings: primates, in vivo
# [20] = Antiproliferative activity against human SN40R2 cells derivative of SJSA-1 cells expressing mutant TP53 at 50 uM incubated for 72 hrs by Sulforhodamine B assay; type: functional
# [21] = Drug metabolism in mouse liver microsomes assessed as retention time of metabolite aryl-iminium ion at 10 uM by LC-MS analysis; type: ADME, Microsome
# [22] = Drug metabolism in mouse liver microsomes assessed as retention time of compound at 10 uM by LC-MS analysis; type: ADME, Microsome
# [23] = Antiproliferative activity against human SN40R2 cells derivative of SJSA-1 cells expressing mutant TP53 incubated for 72 hrs by Sulforhodamine B assay; type: functional
# [24] = Drug metabolism in mouse liver microsomes assessed as retention time of metabolite rac-1-(((2-(4-chlorobenzyl)-1-(4-chlorophenyl)-5-(2-hydroxypropan-2-yl)-3-oxoisoindolin-1-yl)oxy)methyl)cyclopropane-1-carboxylic acid at 10 uM by LC-MS analysis; type: ADME, Microsome
# [25] = Drug metabolism in mouse liver microsomes assessed as metabolite rac-1-(((2-(4-chlorobenzyl)-1-(4-chlorophenyl)-5-(2-hydroxypropan-2-yl)-3-oxoisoindolin-1-yl)oxy)methyl)cyclopropane-1-carboxylic acid formation at 10 uM measured up to 40 mins by LC-MS analysis; type: ADME, Microsome
# T1 sequence (P08684 whole entry): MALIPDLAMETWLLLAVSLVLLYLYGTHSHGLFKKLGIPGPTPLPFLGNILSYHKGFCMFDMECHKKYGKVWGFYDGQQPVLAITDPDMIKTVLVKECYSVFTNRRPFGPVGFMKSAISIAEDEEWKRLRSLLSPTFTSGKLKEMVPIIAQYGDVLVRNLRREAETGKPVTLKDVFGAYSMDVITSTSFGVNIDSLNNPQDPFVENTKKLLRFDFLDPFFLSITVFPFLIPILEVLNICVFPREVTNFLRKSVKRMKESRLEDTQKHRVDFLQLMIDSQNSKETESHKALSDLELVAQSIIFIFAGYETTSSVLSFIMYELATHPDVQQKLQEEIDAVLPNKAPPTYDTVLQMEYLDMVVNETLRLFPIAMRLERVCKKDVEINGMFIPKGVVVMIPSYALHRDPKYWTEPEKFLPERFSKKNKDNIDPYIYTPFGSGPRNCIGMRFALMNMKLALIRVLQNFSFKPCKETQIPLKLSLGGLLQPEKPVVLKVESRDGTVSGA
half-life at 1 µM [1] [min],chromatographic logD [2],half-life at 1 µM (CYP3A4 [4]) [min],half-life at 1 µM [5] [min],IC50 [6] [nM],GI50 (SJSA-1 [9]) [nM],fraction unbound at 48 h [11],CL/F [13] [mL/min/kg],fraction unbound at 48 h [14],bioavailability [16] [%],SMILES,other results
27,3.8,14,52,3.8,200,0.086,11,0.094,46,[2H]C([2H])(O)C1(C([2H])([2H])O[C@]2(c3ccc(Cl)cc3)c3c(F)cc(C(C)(C)O)cc3C(=O)N2Cc2ccc(C#N)cn2)CC1,inhibition at 8 µM (CYP3A4 [3]): 46%; T/C (SJSA-1 [7]): 21%; fold change (FC) (SJSA-1 [8]): 3.7; Activity [10]: 20%; clearance [12]: 11 mL/min/kg; fold change (FC) (SJSA-1 [15]): 10.3; Activity [17]: Non-Toxic; Activity [18]: Non-Toxic; bioavailability [19]: 31%
,3.9,,,3.1,260,,,,,[2H]C([2H])(O)C1(C([2H])([2H])O[C@]2(c3ccc(Cl)cc3)c3c(F)cc(C(C)(C)O)cc3C(=O)N2Cc2ncc(C#N)cn2)CC1,Activity [20]: 19%
< 5,,< 5,9.5,,,0.002,25,0.001,6.5,CC(C)(O)c1ccc2c(c1)C(=O)N(Cc1ccc(Cl)cc1)[C@@]2(OCC1(CO)CC1)c1ccc(Cl)cc1,Retention_time [21]: 2.13 min; Retention_time [22]: 2.3 min; GI50 [23]: 18000 nM; Retention_time [24]: 2.12 min; Drug metabolism [25]: Metabolite_Detected
